Common to all, as to format: functional, organism-based
Assay [1] deals with Staphylococcus epidermidis. The assay can be described thus: Antibacterial activity against Staphylococcus epidermidis after 18 hrs by turbidity assay.
Assay [2] relates to Mycolicibacterium smegmatis. The experiment in a line: Antibacterial activity against Mycobacterium smegmatis after 18 hrs by turbidity assay.
Assay [3] concerns Pseudomonas aeruginosa. The assay can be described thus: Antibacterial activity against Pseudomonas aeruginosa after 18 hrs by turbidity assay.
Assay [4] relates to Escherichia coli. The assay can be described thus: Antibacterial activity against Escherichia coli after 18 hrs by turbidity assay.

Values after ≈ are worked out from the molar mass of the structure shown. Bounds are passed on as bounds.

The text below walks through data of ChEMBL document CHEMBL3085722, “Stereochemical assignment of the fungal metabolites pestalotiopsones D and E through enantiopure synthesis” (J Nat Prod, 2013).

What is called MIC is the least concentration at which growth counts as inhibited. In the case of `COC(=O)Cc1cc(OC)cc2oc(CCCCC[C@@H](C)OC(C)=O)cc(=O)c12`, the minimal inhibitory concentration (MIC) in assay [1], in assay [2], in assay [3] and in assay [4] was > 500 µg/mL in each case.

As for `CCOC(=O)Cc1cc(O)cc2oc(CCCCC[C@@H](C)O)cc(=O)c12`, the minimal inhibitory concentration (MIC) in assay [1], in assay [2], in assay [3] and in assay [4] was > 500 µg/mL throughout.

Turning to `COC(=O)Cc1cc(O)cc2oc(CCCCC[C@@H](C)O)cc(=O)c12`, the MIC in assay [1], in assay [2], in assay [3] and in assay [4] was > 500 µg/mL throughout.

By IC50 is commonly meant the concentration that inhibits the measured activity by half. A low value points to inhibition by little substance. In the case of `COC(=O)Cc1cc(O)cc2oc(CCCCC[C@H](C)O)cc(=O)c12`, the half-maximal inhibitory concentration (IC50) in assay [1], in assay [2], in assay [3] and in assay [4] was > 500 µg/mL throughout. Moreover, the minimal inhibitory concentration (MIC) in assay [1], in assay [2], in assay [3] and in assay [4] was > 500 µg/mL each time.

Regarding `CCOC(=O)Cc1cc(O)cc2oc(CCCCC[C@H](C)O)cc(=O)c12`, the IC50 in assay [1] is > 500 µg/mL; in assay [2], 484 µg/mL (≈ 1340 µM); in assay [3], 440 µg/mL (≈ 1210 µM); in assay [4] it was > 500 µg/mL. Also, the MIC in assay [1], in assay [2], in assay [3] and in assay [4] was > 500 µg/mL throughout.

On to `COC(=O)Cc1cc(OC)cc2oc(CCCCC[C@H](C)OC(C)=O)cc(=O)c12`, for which the half-inhibitory concentration (IC50) in assay [1] is > 500 µg/mL; in assay [2] it was > 500 µg/mL; in assay [3], 465 µg/mL (≈ 1150 µM); in assay [4] it was > 500 µg/mL. Moreover, the MIC in assay [1], in assay [2], in assay [3] and in assay [4] was > 500 µg/mL in each case.

Consider `COC(=O)Cc1cc(OC)cc2c1C(=O)CC(CCCCC[C@@H](C)OC(C)=O)O2` (mixture of isomers), for which the MIC in assay [1], in assay [2], in assay [3] and in assay [4] was > 500 µg/mL in each case.

With `COC(=O)Cc1cc(OC)cc2c1C(=O)CC(CCCCC[C@H](C)OC(C)=O)O2` (mixture of isomers), the IC50 in assay [1] was > 500 µg/mL; in assay [2], 492 µg/mL; in assay [3] it was 445 µg/mL; in assay [4] it was > 500 µg/mL. Also, the minimal inhibitory concentration (MIC) in assay [1], in assay [2], in assay [3] and in assay [4] was > 500 µg/mL throughout.

In the case of `NC[C@H]1O[C@H](O[C@H]2[C@H](O)[C@@H](O[C@H]3O[C@H](CO)[C@@H](O)[C@H](N)[C@H]3O)[C@H](N)C[C@@H]2N)[C@H](O)[C@@H](O)[C@@H]1O` [KANAMYCIN], the IC50 in assay [1] was 90 µg/mL (≈ 186 µM); in assay [2], < 1 µg/mL; in assay [3], 209 µg/mL (≈ 431 µM); in assay [4], < 1 µg/mL.
